Data reported in patent US7553667B2, “Regulation of gene expression using chromatin remodelling factors” (Her Majesty the Queen in right of Canada as represented by …, priority 2002, dated 2009).

Assays:
BnSCL1 gene expression = assay: Quantitative one-step RT-PCR of BnSCL1 expression in treated seedlings; assay type: in vivo, Brassica napus
Description: In exogenous applied auxin treatments, four-leaf stage seedlings grown at 20° C. were treated with a foliar spray containing 1 mM 2,4-D and 50 mM sodium phosphate, pH 7.5. The four leaves were collected at 30 min, 60 min and 180 min after the first foliar application of 2,4-D. For the measurement of response of shoots and roots to auxin, sterilized seeds were germinated on plates in a growth chamber with continuous light at 20° C., and 10 dpg seedlings were supplied with varied concentration of 2,4-D. In the auxin transport inhibition experiments, 9 dpg seedlings were incubated in the medium supplemented with 50 μM NPA dissolved in 0.1% DMSO for 24 h before the 2,4-D treatment. For the HDAC inhibitor treatments, 10 mM sodium butyrate was added onto the growth medium and incubated for 24 h followed by exogenous 2,4-D application at varied concentrations.
Total RNA extracted as described above was treated with Amplification Grade Deoxyribonuclease I (GibcoL BRL) following the manufacture's instructions. The RNA samples were then directly used for reverse transcription prior to amplification without purification. The RT-PCR was quantitatively performed and completed in a one-step reaction using […] One-Step RT-PCR System (GibcoL BRL) as described by Gao et al. (2002). Gene-specific sense and anti-sense primers used to generate a 960 bp fragment of Brassica napus Actin, as an internal standard, were as described in Gao et al., (2002). Gene-specific primers for the generation of BnSCL1, BnIAA1 and BnIAA12 fragments were as follows: […]

bnKCP1 expression = assay: Northern blot of bnKCP1 expression in leaves of treated seedlings; assay type: in vivo, Brassica napus; details: for bnKCP1 transcript in leaves after treatment: four-leaf stage seedlings, room temperature, 10 μM inomycin or 20 mM LaCl3
Description: Brassica napus L. cv Cascade (winter type), Westar (spring type) and DES010 (spring type) were used for the isolation of genomic DNA and total RNA. Leaves, flowers, stems, siliques and immature seeds were harvested from plants cultured in a controlled-environment greenhouse programmed for a photoperiod of 16 h day and 8 h night. Roots were obtained by culturing sterilized seeds in 0.8% agar plates containing ½ MS medium and 1% sucrose. For cold acclimation (4° C.), abscisic acid (250 μM), drought and high salt (850 mM NaCl) treatments, four-leaf stage seedlings were treated and fourth fully expanded leaf blades were harvested as described by Gao et al. (2002). LaCl3 and inomycin treatments were carried out by watering four-leaf stage plants with 20 mM LaCl3 and 10 μM inomycin, respectively. Plants were covered with SARAN Wrap to slow evaporation.
Total RNA was isolated from the tissues of B. napus L. cv DES010. These included leaves and stems of four-leaf stage seedlings, flowers, immature siliques of adult plants, and roots of cultured seedlings as described by Gao et al. (2001). Probe labelling, hybridization, washing and membrane stripping were performed as described above in the Southern blot analysis Section.

GST-HDA19 = biological target: T1, GST-HDA19 (Arabidopsis thaliana, UniProt O22446); assay: GST pulldown affinity assay of bnKCP1 and mutants with GST-HDA19; assay type: binding; details: [35S]Met-labeled in vitro translated protein
T1 construct: made in house; host or cells: E. coli BL21-CodonPlus (DE3)-RP
T1 sequence (O22446 1-501): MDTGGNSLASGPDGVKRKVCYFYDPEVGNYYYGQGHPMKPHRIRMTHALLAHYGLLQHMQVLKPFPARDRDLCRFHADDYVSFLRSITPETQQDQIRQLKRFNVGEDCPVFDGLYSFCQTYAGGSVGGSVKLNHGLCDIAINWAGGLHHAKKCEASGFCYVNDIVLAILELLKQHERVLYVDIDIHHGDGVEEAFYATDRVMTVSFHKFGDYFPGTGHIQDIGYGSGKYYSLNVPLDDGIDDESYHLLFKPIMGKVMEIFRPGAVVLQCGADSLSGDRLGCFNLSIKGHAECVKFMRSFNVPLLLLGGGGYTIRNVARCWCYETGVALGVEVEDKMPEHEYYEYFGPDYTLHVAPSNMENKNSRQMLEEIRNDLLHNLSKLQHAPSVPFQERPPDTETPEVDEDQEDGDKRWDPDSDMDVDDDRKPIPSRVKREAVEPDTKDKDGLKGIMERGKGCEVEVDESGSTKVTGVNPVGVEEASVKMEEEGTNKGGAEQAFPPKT
Source text: (§1) The full coding regions of the Arabidopsis HAT, Gcn5 (Dr. M. Thomashow, Michigan State University, MI), and HDA19 (Accession # AF195547) were PCR amplified, sequence analyzed and inserted in-frame with the GST (glutathione s-transferase) into the SalI and NotI sites of vector pGEX-6P-2 (Amersham Pharmacia). The forward used for the amplification of Gcn5 was:
(§2) Recombinant pGEX-6P-2 plasmids were used to transform E. coli BL21-CodonPlus (DE3)-RP competent cells (Stratagene). Expression and purification under non-denaturing conditions were carried out as described by Gao et al. (Gao, M.-J. et al., 2002). The GST-Gcn5 and GST-HDA19 fusion proteins were analyzed by 7.5% SDS-PAGE (SDS-polyacrylamide gel electrophoresis) and western blotting with rabbit anti-GST-Pi polyclonal antibody (Chemicon) using ECL Western blotting analysis system (Amersham Pharmacia).
(§3) Full-length bnKCP1 and truncated mutant bnKCP1^1-160 and bnKCP1^1-80 proteins labeled with [^35S]methionine were produced using TNT-Quick Coupled Transcription/Translation System (Promega) according to the manufacture's instructions, with some modifications. A total of 1 μl of RNase inhibitor (GibcoL BRL) and 1 μl of protease inhibitors set (Roche) were added to the lysate reaction. After incubation for 90 min at 30° C., RNase A was added to the reaction to a final concentration of 0.2 mg/ml and incubated for 5 min at the same temperature.
In vitro protein interaction was detected with GST pulldown affinity assays as described by Ahmad et al. (1999) with some modifications. Briefly, 6 μg of GST or 4 μg of GST-fusion protein was incubated with 5 μl of [^35S]Met-labeled translation mixture in 200 μl of bead-binding buffer (50 mM K-phosphate, pH 7.6, 450 mM KCl, 10 mM MgCl2, 10% glycerol, 1% Triton X-100, 1% BSA and 1 μl of diluted 1:12 protease inhibitors set) for 1 h at room temperature. After incubation, 20 μl of 50% slurry of glutathione-Sepharose beads containing 10 mg/ml of BSA and 4 μg of EtBr was mixed with the reaction mixture followed by gentle rotation for 1 h at 4° C. After washing six times with 1.2 ml of bead-binding buffer without BSA and EtBr but containing 12 μl of protease inhibitors set (Roche), the bound proteins were eluted with 30 μl of 2×SDS loading buffer, boiled for 2 min and analyzed by 12% SDS-PAGE. After electrophoresis, the gels were dried, treated with Amplify (Amersham Pharmacia) and subjected to fluorography.

[1] = test system: lacZ reporter gene driven by promoter containing GAL4 DNA binding sites; assay: Transactivation assay of bnKCP1 using yeast one-hybrid system; assay type: cell-based, yeast MaV203; details: transactivation in yeast
Source text: Effector plasmids pDBLeu-bnKCP1^1-160, pDBLeu-bnKCP1^1-80, pDBLeu-bnKCP1^81-215 and pDBLeu-bnKCP1 were constructed by ligating the PCR-amplified fragments ΔbnKCP1^1-160, ΔbnKCP1^1-80, ΔbnKCP1^81-215 and the coding region of bnKCP1 into the SalI/NotI sites of pDBLeu vector (GibcoL BRL) in-frame with the GAL4 DB sequence. The oligonucleotide primers for PCR amplification were as follows: […]
The three reporter genes, lacZ, HIS3 and URA3, which were chromosomally integrated in the genome of MaV203 yeast cells were driven by unrelated promoters containing GAL4 DNA binding sites (GibcoL BRL). For transient assays, the effector constructs or the negative control vector pDBLeu were transferred to the MaV203 yeast cells. The β-galactosidase activity was measured using CPRG (chlorophenol red-β-D-galactopyranoside) according to the manufacturer's instructions (GibcoL BRL). The MaV203 cells containing plasmids pDBLeu-HDA19 and pPC86-bnKCP1 were used as the positive control. In addition, we used three yeast control strains A, B, and C (GibcoL BRL), which were developed to contain plasmid pairs expressing fusion proteins with none, weak and moderately strong protein-protein interaction strength, respectively. Transient Expression of the GUS-bnCKP1 Fusion Protein

GST-Gcn5 = biological target: T2, GST-Gcn5 (Arabidopsis thaliana, UniProt Q9AR19); assay: GST pulldown affinity assay of bnKCP1 and mutants with GST-Gcn5; assay type: binding; details: [35S]Met-labeled in vitro translated protein
T2 construct: made in house; host or cells: E. coli BL21-CodonPlus (DE3)-RP
T2 sequence (Q9AR19 1-568): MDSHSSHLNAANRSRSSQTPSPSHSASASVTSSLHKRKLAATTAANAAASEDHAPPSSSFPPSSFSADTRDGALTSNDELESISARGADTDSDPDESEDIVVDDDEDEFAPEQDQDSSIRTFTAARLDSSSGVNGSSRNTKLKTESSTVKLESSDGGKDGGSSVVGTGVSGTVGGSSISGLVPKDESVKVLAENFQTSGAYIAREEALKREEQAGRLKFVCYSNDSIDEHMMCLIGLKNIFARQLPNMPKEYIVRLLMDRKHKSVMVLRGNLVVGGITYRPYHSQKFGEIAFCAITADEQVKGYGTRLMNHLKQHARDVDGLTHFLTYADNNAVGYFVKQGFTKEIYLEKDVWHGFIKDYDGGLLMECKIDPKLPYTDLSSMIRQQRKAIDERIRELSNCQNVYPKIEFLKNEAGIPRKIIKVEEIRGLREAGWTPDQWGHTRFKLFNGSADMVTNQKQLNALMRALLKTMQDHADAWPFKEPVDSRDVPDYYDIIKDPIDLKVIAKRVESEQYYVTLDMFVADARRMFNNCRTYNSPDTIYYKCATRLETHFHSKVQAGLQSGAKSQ
Source text: as §1, §2, §3
In vitro protein interaction was detected with GST pulldown affinity assays as described by Ahmad et al. (1999) with some modifications. […] After washing six times with 1.2 ml of bead-binding buffer without BSA and EtBr but containing 12 μl of protease inhibitors set (Roche), the bound proteins were eluted with 30 μl of 2×SDS loading buffer, boiled for 2 min and analyzed by 12% SDS-PAGE. […]

## O=C(O)COc1ccc(Cl)cc1Cl [2,4-D]
BnSCL1 gene expression; 10 dpg seedlings, 100 μM required to produce an effect
  BnSCL1 expression in roots: upregulated
BnSCL1 gene expression; 10 dpg seedlings, even at the lowest level (1 pM)
  expression of BnSCL1 in shoots: rapidly downregulated
BnSCL1 gene expression; four-leaf stage seedlings, leaves, within 30 min of 1 mM foliar application, vs untreated plants
  increase of BnSCL1 mRNA accumulation: approximately 50%

## CC1=CC(=O)CC(C)(C)[C@@]1(O)/C=C/C(C)=C\C(=O)O [ABA, abscisic acid]
bnKCP1 expression; exogenous application for up to 8 hours, data not shown
  bnKCP1 expression in leaf blades after treatment: not detected

## [Cl][La]([Cl])[Cl] [LaCl3]
bnKCP1 expression
  bnKCP1 transcript in leaves after treatment: undetectable

## O=C(O)c1ccccc1C(=O)Nc1cccc2ccccc12 [NPA, naphthylphthalamic acid]
BnSCL1 gene expression; 50 μM for 24 h before 2,4-D at different concentrations
  BnSCL1 mRNA accumulation profiles in response to auxin in shoots and roots: not changed

## inomycin
bnKCP1 expression
  bnKCP1 transcript in leaves after treatment: rapid (2 hrs) but short-lived

B1: bnKCPG^188: bnKCP1 with S188 mutated to G188 by site-directed mutagenesis (protein)
chain: MAGGGPTFSIELSAYGSDLPTDKASGDIPNEEGSGLSRVGSGIWSGRTVDYSSESSSSIGTPGDSEEEDEESEEDNDEEELGLASLRSLEDSLPSKGLSSHYKGKSKSFGNLGEIGSVKEVPKQENPLNKKRRLQIYNKLARKSFYSWQNPKSMPLLPVHEDNDDEEGDDGDLSDEERGGDVLARRPGFKNRALKSMSCFALSDLQEEEEEEEDE
GST-HDA19
  in vitro binding to GST-HDA19: significantly reduced binding

B2: ΔbnKCP1^1-80: C-terminal truncated mutant of bnKCP1, residues 1-80, lacking the KID domain (protein)
chain: MAGGGPTFSIELSAYGSDLPTDKASGDIPNEEGSGLSRVGSGIWSGRTVDYSSESSSSIGTPGDSEEEDEESEEDNDEEE
GST-HDA19
  in vitro binding to GST-HDA19: no interaction
[1]
  influence of deletion of KID or GKSKS domains on β-galactosidase activity: no significant influence
GST-Gcn5
  in vitro binding to GST-Gcn5: no interaction

B3: ΔbnKCP1^1-160: C-terminal truncated mutant of bnKCP1, residues 1-160, lacking the KID domain (protein)
chain: MAGGGPTFSIELSAYGSDLPTDKASGDIPNEEGSGLSRVGSGIWSGRTVDYSSESSSSIGTPGDSEEEDEESEEDNDEEELGLASLRSLEDSLPSKGLSSHYKGKSKSFGNLGEIGSVKEVPKQENPLNKKRRLQIYNKLARKSFYSWQNPKSMPLLPVH
GST-HDA19
  in vitro binding to GST-HDA19: no interaction
[1]
  influence of deletion of KID or GKSKS domains on β-galactosidase activity: no significant influence
GST-Gcn5
  in vitro binding to GST-Gcn5: no interaction
